Like-named read-outs stand apart in the source and are kept apart here.
What was measured:
Experiment in all cases: Test C pre-/postemergence greenhouse test, plant response rating 0-100
Type in all cases: in vivo
[1] = system: large (Lg) crabgrass (Digitaria sanguinalis); conditions: Digitaria sanguinalis; for pest or weed control at 62 g/ha: 62 g ai/ha; for pest or weed control at 125 g/ha: 125 g ai/ha; for pest or weed control at 250 g/ha: 250 g ai/ha
In short: (§1)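 Scores run from 0, no effect, to 100, complete control, assigned by eye after treated plants and controls spent 13 to 15 days in a greenhouse. Soil-applied treatment went onto freshly sown seed in loam and sand; foliar treatment hit seedlings at the 1- to 4-leaf stage.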

[2] = system: velvetleaf (Abutilon theophrasti); conditions: Abutilon theophrasti; for pest or weed control at 62 g/ha: 62 g ai/ha; for pest or weed control at 125 g/ha: 125 g ai/ha; for pest or weed control at 250 g/ha: 250 g ai/ha
In short: as §1

corn (Zea mays) = conditions: Zea mays; for Corn plant response rating (crop injury, 0 = no effect, 100 = complete kill) at 250 g/ha: 250 g ai/ha
In short: as §1

[3] = system: galium (catchweed bedstraw, Galium aparine); conditions: Galium; for pest or weed control at 62 g/ha: 62 g ai/ha; for pest or weed control at 125 g/ha: 125 g ai/ha; for pest or weed control at 250 g/ha: 250 g ai/ha
In short: as §1

[4] = system: blackgrass (Alopecurus myosuroides); conditions: Alopecurus myosuroides; for pest or weed control at 62 g/ha: 62 g ai/ha; for pest or weed control at 125 g/ha: 125 g ai/ha; for pest or weed control at 250 g/ha: 250 g ai/ha
In short: as §1

[5] = system: lambsquarters (Chenopodium album); conditions: Chenopodium album; for pest or weed control at 62 g/ha: 62 g ai/ha; for pest or weed control at 125 g/ha: 125 g ai/ha
In short: as §1

[6] = post-emergence, Postemergence, read-out: Plant response rating (0 to 100), Crabgrass, Large
[7] = post-emergence, Postemergence, scale 0 to 100
[8] = post-emergence, Postemergence, 500 g ai/ha, scale 0 to 100
[9] = pre-emergence, Preemergence, read-out: Plant response rating, Crabgrass, Large
[10] = post-emergence, Postemergence, read-out: Plant response rating (0 to 100), Velvetleaf
[11] = pre-emergence, Preemergence, read-out: Plant response rating, Velvetleaf
[12] = pre-emergence, Preemergence, 31 g ai/ha
[13] = post-emergence, Postemergence, read-out: Plant response rating (0 to 100), Galium
[14] = pre-emergence, Preemergence, read-out: Plant response rating, Galium
[15] = pre-emergence, Preemergence, read-out: Plant response rating, Blackgrass
[16] = post-emergence, Postemergence, read-out: Plant response rating (0 to 100), Lambsquarters
[17] = pre-emergence, Preemergence, read-out: Plant response rating, Lambsquarters

O=C(c1ccccc1)c1cn(CO)nc1-c1cc(Cl)cc(Cl)c1 [Compound 15, [3-(3,5-dichlorophenyl)-1-(hydroxymethyl)-1H-pyrazol-4-yl]phenylmethanone]
10%: pest or weed control at 250 g/ha [3, 7]
75%: pest or weed control at 62 g/ha [5, 16]
100%: pest or weed control at 125 g/ha [2, 11] | pest or weed control at 250 g/ha ([2]; pre-emergence, Preemergence) | pest or weed control at 31 g/ha [5, 12] | pest or weed control at 62 g/ha [5, 17] | pest or weed control at 125 g/ha [5, 17]
0%: pest or weed control at 62 g/ha [1, 6] | pest or weed control at 125 g/ha [1, 6] | pest or weed control at 250 g/ha [1, 7] | pest or weed control at 500 g/ha [1, 8] | pest or weed control at 31 g/ha ([1]; pre-emergence, Preemergence, 31 g ai/ha, read-out: Plant response rating, Crabgrass, Large) | pest or weed control at 62 g/ha [1, 9] | pest or weed control at 125 g/ha [1, 9] | pest or weed control at 250 g/ha ([1]; pre-emergence, Preemergence) | plant injury at 62 g/ha (corn (Zea mays); post-emergence, Postemergence, 62 g ai/ha) | plant injury at 125 g/ha (corn (Zea mays); post-emergence, Postemergence, 125 g ai/ha) | Corn plant response rating (crop injury, 0 = no effect, 100 = complete kill) at 250 g/ha (corn (Zea mays); [7]) | Corn plant response rating (crop injury, 0 = no effect, 100 = complete kill) at 500 g/ha (corn (Zea mays); [8]) | Corn plant response rating (crop injury, 0 = no effect, 100 = complete kill) at 31 g/ha (corn (Zea mays); [12]) | Corn plant response rating (crop injury, 0 = no effect, 100 = complete kill) at 62 g/ha (corn (Zea mays); pre-emergence, Preemergence, 62 g ai/ha) | Corn plant response rating (crop injury, 0 = no effect, 100 = complete kill) at 125 g/ha (corn (Zea mays); pre-emergence, Preemergence, 125 g ai/ha) | Corn plant response rating (crop injury, 0 = no effect, 100 = complete kill) at 250 g/ha (corn (Zea mays); pre-emergence, Preemergence) | pest or weed control at 62 g/ha [3, 13] | pest or weed control at 125 g/ha [3, 13] | pest or weed control at 31 g/ha ([3]; pre-emergence, Preemergence, 31 g ai/ha, read-out: Plant response rating, Galium) | pest or weed control at 62 g/ha [3, 14] | pest or weed control at 125 g/ha [3, 14] | pest or weed control at 250 g/ha ([3]; pre-emergence, Preemergence) | pest or weed control at 62 g/ha ([4]; post-emergence, Postemergence, read-out: Plant response rating (0 to 100), Blackgrass) | pest or weed control at 125 g/ha ([4]; post-emergence, Postemergence, scale 0 to 100, read-out: Plant response rating, Blackgrass) | pest or weed control at 250 g/ha [4, 7] | pest or weed control at 500 g/ha [4, 8] | pest or weed control at 31 g/ha ([4]; pre-emergence, Preemergence, 31 g ai/ha, read-out: Plant response rating, Blackgrass) | pest or weed control at 62 g/ha [4, 15] | pest or weed control at 125 g/ha [4, 15] | pest or weed control at 250 g/ha ([4]; pre-emergence, Preemergence)
45%: pest or weed control at 500 g/ha [3, 8]
90%: pest or weed control at 250 g/ha [2, 7] | pest or weed control at 500 g/ha [2, 8] | pest or weed control at 500 g/ha [5, 8]
60%: pest or weed control at 62 g/ha [2, 11]
80%: pest or weed control at 62 g/ha [2, 10] | pest or weed control at 125 g/ha [2, 10] | pest or weed control at 125 g/ha [5, 16] | pest or weed control at 250 g/ha ([5]; post-emergence, Postemergence, 250 g ai/ha, scale 0 to 100)

Source: patent US10167262B2, “Herbicidal substituted 3-arylpyrazoles” (FMC CORPORATION, priority 2014, dated 2019)
